Data set [1] is described as follows: Cytotoxicity against Chlorocebus aethiops (African green monkey) Vero cells after 72 hr by trypan blue assay. The note with it: chlorocebus sabaeus. It is filed as cell-based.
In data set [2] the target is Human immunodeficiency virus type 1 reverse transcriptase (Human immunodeficiency virus 1, UniProt Q72547). Description: Inhibition of RNA-dependent DNA polymerase activity of Human immunodeficiency virus 1 recombinant reverse transcriptase expressed in Escherichia coli using poly(rA)oligo(dT) template primer after 30 min.

Where only a bound is given, the exact number is not on record here.

With `O=C1Nc2ccc(Cl)cc2C1(O)C(F)(F)F` (stereo not given), the CC50 (in general, the concentration giving 50% cytotoxicity) at 72 h in data set [1] is greater than 700 µM. Further, in data set [2], the IC50 (in general, the concentration needed to halve the response being measured) was found to be 7.1 µM.
On the same counts, the results for `CC(=O)N1C(=O)C(O)(C(F)(F)F)c2cc(Cl)ccc21` (stereo not given) are greater than 360 µM and 3.41 µM.
The like results for `CC(=O)N1C(=O)C(O)(C(F)(F)F)c2cc(C)ccc21` (stereo not given) were, in that order, greater than 650 µM and 8.37 µM.
The like results for `CN1C(=O)C(O)(C(F)(F)F)c2cc(Br)ccc21` (stereo not given) were, in that order, greater than 250 µM and 3.61 µM.
In data set [1], `O=C1Nc2ccccc2C1(O)C(F)(F)F` (stereo not given) came in with a CC50 at 72 h greater than 650 µM. Further, the IC50 in data set [2] turned out to be 6.07 µM.
